Measured values as given in the OligoGym collection.
Where “and” joins values, the source holds several entries; their conditions need not be identical. Equal values may be shown once. After the bases stand the sugars from the 5' end (letter, count) and the backbone: PS all phosphorothioate, else s phosphorothioate and o phosphodiester by linkage. Methylation of C is not given here. e = 2'-O-(2-methoxyethyl) (MOE); k = constrained ethyl (cEt); d = 2'-deoxy (DNA)

Target: SOD1
Conditions: ASO

CAGGATACATTTCTACAGCT (sugars e5 d10 e5, linkages s1 o4 s10 o2 s2)
target mRNA inhibition (A431, 0.062 µM): 18% | target mRNA inhibition (A431, 0.185 µM): 28% | target mRNA inhibition (A431, 0.556 µM): 45% | target mRNA inhibition (A431, 1.667 µM): 70% | target mRNA inhibition (A431, 5 µM): 69% | target mRNA inhibition (A431, 15 µM): 81% | target mRNA inhibition (SH-SY5Y, 0.062 µM): 0% | target mRNA inhibition (SH-SY5Y, 0.185 µM): 17% | target mRNA inhibition (SH-SY5Y, 0.556 µM): 49% | target mRNA inhibition (SH-SY5Y, 1.667 µM): 62% | target mRNA inhibition (SH-SY5Y, 5 µM): 83% | target mRNA inhibition (SH-SY5Y, 15 µM): 91%

ACCATCTTTGTCAGCAGTCA (sugars e5 d10 e5, PS)
target mRNA inhibition (HepG2, 5 µM): 41% and 30%

TGGTCCATTACTTTCCT (sugars e3 k2 d7 k2 e3, PS)
target mRNA inhibition (HepG2, 3 µM): 5%

ACCCATCTGTGATTTAA (sugars e2 k2 d9 k2 e2, PS)
target mRNA inhibition (HepG2, 5 µM): 44%

CCCTTCAGCACGCACACGGC (sugars e5 d10 e5, PS)
target mRNA inhibition (HepG2, 0.1875 µM): 17% | target mRNA inhibition (HepG2, 0.75 µM): 26% | target mRNA inhibition (HepG2, 3 µM): 59% | target mRNA inhibition (HepG2, 4 µM): 37% | target mRNA inhibition (HepG2, 12 µM): 83%

CTGCACTGGTACAGCCT (sugars e3 k2 d7 k2 e3, PS)
target mRNA inhibition (HepG2, 3 µM): 3%

CTTCCCCACACCTTCAC (sugars e3 k2 d7 k2 e3, PS)
target mRNA inhibition (HepG2, 3 µM): 29%

TATTGGGCGATCCCAAT (sugars e2 k2 d8 k2 e3, PS)
target mRNA inhibition (HepG2, 4 µM): 19%

TGTTTATCAGGATACAT (sugars e2 k2 d8 k2 e3, PS)
target mRNA inhibition (HepG2, 4 µM): 70%

GGCTTGAATGACAAAGA (sugars e2 k2 d9 k2 e2, PS)
target mRNA inhibition (HepG2, 5 µM): 44%

TTGCCCAAGTCATCTGC (sugars e3 k2 d7 k2 e3, PS)
target mRNA inhibition (HepG2, 3 µM): 92%

GGCGATCCCAATTACACCAC (sugars e5 d8 e7, linkages s1 o3 s10 o3 s2)
target mRNA inhibition (A431, 0.062 µM): 0% | target mRNA inhibition (A431, 0.185 µM): 9% | target mRNA inhibition (A431, 0.556 µM): 0% | target mRNA inhibition (A431, 1.667 µM): 0% | target mRNA inhibition (A431, 5 µM): 4% | target mRNA inhibition (A431, 15 µM): 0% | target mRNA inhibition (SH-SY5Y, 0.062 µM): 5% | target mRNA inhibition (SH-SY5Y, 0.185 µM): 2% | target mRNA inhibition (SH-SY5Y, 0.556 µM): 16% | target mRNA inhibition (SH-SY5Y, 1.667 µM): 25% | target mRNA inhibition (SH-SY5Y, 5 µM): 36% | target mRNA inhibition (SH-SY5Y, 15 µM): 61%

ATTGGGCGATCCCAATT (sugars e3 k2 d7 k2 e3, PS)
target mRNA inhibition (HepG2, 3 µM): 19%

TGAGATCACAGAATCTTCAA (sugars e5 d10 e5, PS)
target mRNA inhibition (HepG2, 5 µM): 30%

CAGGATACATTTCTACAG (sugars e5 d8 e5, linkages s1 o3 s9 o2 s2)
target mRNA inhibition (A431, 0.12 µM): 2% | target mRNA inhibition (A431, 0.6 µM): 31% | target mRNA inhibition (A431, 3 µM): 9% | target mRNA inhibition (A431, 15 µM): 18% | target mRNA inhibition (HepG2, 0.222 µM): 14% | target mRNA inhibition (HepG2, 0.667 µM): 31% | target mRNA inhibition (HepG2, 2 µM): 54% | target mRNA inhibition (HepG2, 6 µM): 84%

GATCATAAATCAGTTTC (sugars e2 k2 d8 k2 e3, PS)
target mRNA inhibition (HepG2, 5 µM): 34%

CGTCGCCCTTCAGCACG (sugars e2 k2 d9 k2 e2, PS)
target mRNA inhibition (HepG2, 4 µM): 43%

GTCATTGAAACAGACAT (sugars e2 k2 d8 k2 e3, PS)
target mRNA inhibition (HepG2, 5 µM): 2%

CCAAGTCATCTGCTTTT (sugars e3 k2 d7 k2 e3, PS)
target mRNA inhibition (HepG2, 3 µM): 50%

TGACAAGTTTAATACCC (sugars e2 k2 d8 k2 e3, PS)
target mRNA inhibition (HepG2, 5 µM): 43%

CCGTCTCCGCGACTACTTTA (sugars e5 d10 e5, PS)
target mRNA inhibition (HepG2, 4 µM): 20%

GTTTTCTGGATAGAGGATTA (sugars e5 d10 e5, PS)
target mRNA inhibition (HepG2, 5 µM): 28% and 39%

ATTGGGCGATCCCAATT (sugars e2 k2 d9 k2 e2, PS)
target mRNA inhibition (HepG2, 4 µM): 23%

GTGTTTAATGTTTATCA (sugars e2 k2 d8 k2 e3, PS)
target mRNA inhibition (HepG2, 0.1875 µM): 44% | target mRNA inhibition (HepG2, 0.75 µM): 71% | target mRNA inhibition (HepG2, 3 µM): 83% | target mRNA inhibition (HepG2, 5 µM): 86% | target mRNA inhibition (HepG2, 12 µM): 84%

AACAGATGAGTTAAGGG (sugars e2 k2 d8 k2 e3, PS)
target mRNA inhibition (HepG2, 0.1875 µM): 32% | target mRNA inhibition (HepG2, 0.75 µM): 55% | target mRNA inhibition (HepG2, 3 µM): 78% | target mRNA inhibition (HepG2, 4 µM): 73% | target mRNA inhibition (HepG2, 12 µM): 93%

GATTACAGTGTTTAATG (sugars e2 k2 d9 k2 e2, PS)
target mRNA inhibition (HepG2, 5 µM): 61%

TTCTGACAAGTTTAATA (sugars e3 k2 d7 k2 e3, PS)
target mRNA inhibition (HepG2, 3 µM): 6%

TGGCAAAATACAGGTCA (sugars e2 k2 d8 k2 e3, PS)
target mRNA inhibition (HepG2, 5 µM): 33%

GGATTCTTTTAATAGCC (sugars e2 k2 d9 k2 e2, PS)
target mRNA inhibition (HepG2, 5 µM): 19%

TCTCTTCATCCTTTGGC (sugars e3 k2 d7 k2 e3, PS)
target mRNA inhibition (HepG2, 3 µM): 14%
